Series [1] has as its system BT549. Put plainly: high-throughput lentiviral shRNA mammosphere formation (MSFE) screen. The format is cell-based, human. The settings on record: Z-score of mammosphere formation vs plate mean, one shRNA per well, 2000 cells/well, 8 biological replicates. The procedure:
(§1) In previously published results, the inventors described a breast cancer stem cell signature that comprised a set of 493 statistically significant, differentially expressed genes that were present in a tumorigenic subpopulation of breast cancer cells (Creighton et al. 2009). The biological confirmation of the significance of these differentially expressed genes was conducted using a shRNA-based gene knockdown approach, correlating the selective knockdown of target genes with mammosphere formation efficacy (MSFE), an in vitro assay for self-renewal. A library of shRNAs which targets the entire human genome (Open Biosystems, Boston, Mass., USA) was used to create a sub-library of shRNAs against the 493 differentially expressed genes in the tumorigenic signature. A total of 1124 shRNAs (˜2-3 shRNA per gene), and appropriate control shRNAs that were encoded in the pGIPZ vector with a green fluorescent protein tag were selected and arrayed on 13×96-well microtiter plates.
(§2) These shRNAs were packaged into lentiviral particles using a second-generation lentiviral packaging system (Addgene, Cambridge, Mass., USA) in 293T cells plated on 96-well plates. The supernatant was then harvested for transduction and expression in a wide range of cell types. Specifically, lentiviruses were collected 3 days after transfection, frozen at −80° C. immediately, and then thawed for transducing two different breast cancer cell lines SUM159PT (American Type Culture Collection; Manassas, Va., USA) and BT549 (ATCC) with 8 biological replicates. Cells were plated in 13×96-well ultra-low attachment plates, at 2000 cells/well, with one shRNA being transduced per well using the Biomek 3000 automated workstation (Beckman Coulter; Brea, Calif. USA), in order to ensure reproducibility and accuracy.
(§3) The lentiviral transduction rate (˜80-90%) in these cell lines was evaluated by fluorescence microscopy using the GFP tag in the pGIPZ vector. MSFE was then assessed in a high throughput screening approach of all 493 genes.
(§4) For shRNA knockdown studies, the mean and the standard deviation from all measurements of each plate for each replicated experiment were estimated. The Z-score was calculated by subtracting the mean of the plate values and dividing this difference by the standard deviation. […] For tumor volume fold-change comparisons, one-way Anova was used to compare different treatment groups. This was followed by Tukey analysis for a pairwise comparison of different treatment groups. For the tumor recurrence studies, events were defined as first appearance of tumor >50 mm^3 after completion of treatment. Time to recurrence was derived by Kaplan-Meier method, with differences compared using the generalized Mann-Whitney-Wilcoxon rank-sum test.
(§5) Previously, a breast cancer stem cell signature was identified comprising 493 statistically significant differentially expressed genes (Creighton et al., 2009). The biological significance of this gene set was confirmed by conducting shRNA-based gene knockdown, and correlating the selective knockdown of target genes using mammosphere-forming efficiency (MSFE), an in vitro assay for self-renewal. As described in the previous examples, a library of shRNAs targeting the entire human genome (Open Biosystems, MA, USA) was used to create a sub-library of shRNAs against the differentially expressed genes in the tumorigenic signature. Using these genes along with appropriate control shRNAs, a total of 1124 shRNAs (˜2-3 shRNA per gene) were tagged with green fluorescent protein, and encoded in pGIPZ vector, and then arrayed on to 13×96-well plates. These shRNAs were packaged into lentiviral particles using a second-generation lentiviral packaging system (Thermo-Fischer, USA) in 293T cells plated in 96-well plates. The supernatant was then harvested for transduction and expression in a wide range of cell types. […]

Series [2] has as its system SUM159. Described as above. The conditions noted are these: Z-score of mammosphere formation vs plate mean, one shRNA per well, 2000 cells/well, 8 biological replicates. The format is cell-based, human. The procedure: as §1, §2, §3, §4, §5
Series [3] deals with SUM159. The description is as above. It is filed as cell-based, human. The settings on record: positive control; for mammosphere forming efficiency: increasing concentration, SUM159 cells.
Series [4] deals with BCM-2665A human primary tumor. Put plainly: docetaxel treatment of BCM-2665A xenograft, tumor growth and ALDF staining. The format is in vivo, SCID/Beige mice. The procedure:
SCID/Beige mice were inoculated with BCM-2665A human primary tumor tissues. After tumors reached 1 cm^3 in size, the tumor mice were treated with 20 mg/kg docetaxel. […] The residual tumor tissues were collected at the end of the experiment, treated with collagenase, and single cells were stained with Aldefluor® reagent (ALDF). Positive staining by ALDF is one of the characteristic markers for TIC. The percentage of ALDF-positive cells was higher in the docetaxel-treated tumor, than in the control samples.

Series [5] deals with BT549. Put plainly: in vitro MSFE with nanoliposome/silicon particle packaged siRNA. It is filed as cell-based, human. The conditions noted are these: BT549. The procedure:
“Claudin-low”-like human breast cancer cell lines (SUM159 and BT549) were plated in 24-well ultralow attachment plates with mammary epithelial growth medium (MEGM) (5,000 cells/well). Both cell lines were then treated with 1 μg/well/6 wells of silicon particles loaded with DOPC nanoliposomes/siRNA. The primary MSs were allowed to grow for 3 days. MFs were counted on Day 3 with a GelCount colony counter (Oxford Optronix, Oxford, UK). Mammosphere-Forming Efficiency (MSFE) was calculated by dividing the number of MSs by the number of seeded cells. In addition, established MSs were serially passaged by dissociation, and single cells were re-plated on fresh 24-well, ultra-low-attachment plates to form secondary mammospheres, which were counted after 3 days. One-way ANOVA and Tukey tests were performed. A p-value of less than 0.05 was considered significant.
To develop a more clinically relevant model, two of the identified candidates (MLF2 and RPL39L) were compared to Stat3 (positive control), and their siRNA sequences identified within the shRNA vector. These siRNAs were then packaged in nanoliposomes and tested for MSFE using the same protocol as above, except for the addition of packaged siRNA instead of lentiviral shRNA. (N.B. wherein shRNA requires a promoter and needs to be transcribed in order to function, siRNA functions by itself once incorporated into recipient cells).
To develop siRNA nanotherapeutics targeting TIC, studies have been conducted to confirm the essential roles of the candidate TIC genes. Exemplary siRNA oligonucleotides specific for STAT3, MFL2, and RPL39L were formulated into nanoliposomes, which were then loaded into porous silicon MSV particles. For in vitro assay, BT549 and SUM159 cells were incubated with MSV/siRNA, and primary and secondary MSFE was measured. […] For in vivo assessment, SCID/Beige mice were inoculated with SUM159 tumor, and treated with MDS/siRNA delivered by tail vein injection. Cells were then isolated from tumor mice 3 weeks later, and MSFE was measured. […] These studies indicate that 1) MDS/siRNA could successfully be delivered to tumor tissues effectively in vivo, 2) uptake of MDS/siRNA by TIC was efficient, and 3) MFL2 and RPL39L were essential genes for TIC.
The siRNA sequences of two candidate genes RPL39 and MLF2 were packaged in nanoliposomes and the effects on MSFE determined in vitro, as described above, using packaged siRNA instead of lentiviral shRNA.

The next series concerns MDAMB231 lung metastasis. Put plainly: in vivo lung metastasis of luciferase-tagged MDAMB231, IVIS imaging. On the set-up: species or system SCID-beige mice. The conditions noted are these: siRNA in cationic liposomes twice weekly, week six. The procedure: 3 million cells MDAMB231 cancer cells, stably transfected with luciferase, were injected in the mammary fat pad of SCID-beige mice and were randomized into 3 groups: (1) vehicle+scrambled siRNA, (2) vehicle+MLF2 siRNA, and (3) vehicle+RPL39 siRNA, and treated with siRNA packaged liposomes twice weekly for 6 weeks. The mice were injected with D-luciferin every week for 6 weeks to determine lung metastases using IVIS imaging (Perkin Elmer). The primary tumors were removed by week 5 to continue this study without increasing the primary tumor burden to 10% of body weight.
To assess the effects of RPL39 and MLF2 siRNA on lung metastasis, SCID-Beige mice were injected with luciferase-tagged MDAMB231 cells and treated with siRNA against RPL39 or MLF2 packaged in cationic liposomes, twice weekly simultaneously, and then sacrificed at week six.

As to `O=S1(=O)N[C@@]2(CN1CC(F)(F)F)[C@@H]1CC[C@H]2Cc2ccc(/C=C/CN3CCC(C(F)(F)F)CC3)cc2C1` [MRK-003], the “BT 549 Z-score” value is on record as −0.731 in the series with BT549 [1] (listed as AA_GSI_pos1_1); −0.688 with BT549 [1] (listed as AA_GSI_pos1_6); −0.519 in the series with BT549 [1] (listed as AA_GSI_pos1_8); −0.719 in the series with BT549 [1] (listed as AA_GSI_pos1_10); −0.675 in the series with BT549 [1] (listed as AA_GSI_pos1_11); −0.463 in the series on BT549 [1] (listed as AA_GSI_pos2_5). Besides, the “BT 549 Z-score” value in the series with BT549 [1] (listed as AA_GSI_pos2_8) was −0.894; with BT549 [1] (listed as AA_GSI_pos2_10) it was −0.685; in the series on BT549 [1] (listed as AA_GSI_pos2_13), −0.397. The “SUM 159 Z-score” value with SUM159 [2] (listed as AA_GSI_pos1_1) is −2.026; with SUM159 [2] (listed as AA_GSI_pos1_6) it was −1.904; in the series with SUM159 [2] (listed as AA_GSI_pos1_8), −1.850; in the series on SUM159 [2] (listed as AA_GSI_pos1_10) it was −1.697; in the series on SUM159 [2] (listed as AA_GSI_pos1_11), −2.078; in the series with SUM159 [2] (listed as AA_GSI_pos2_5), −1.923. Also, the “SUM 159 Z-score” value with SUM159 [2] (listed as AA_GSI_pos2_8) was −1.971; in the series with SUM159 [2] (listed as AA_GSI_pos2_10), −2.139; with SUM159 [2] (listed as AA_GSI_pos2_13), −1.857. Moreover, in the series on SUM159 [3] (10 μM concentration), the MS formation entry is given as “dramatically reduced”. Moreover, the mammosphere forming efficiency entry with SUM159 [3] was “dose-dependent decrease”; in the series with SUM159 [3] (listed as notch inhibitor), “inhibiting MS formation”.

For the compound `CC(=O)O[C@@]12CO[C@@H]1C[C@H](O)[C@@]1(C)C(=O)[C@H](O)C3=C(C)[C@@H](OC(=O)[C@H](O)[C@@H](NC(=O)OC(C)(C)C)c4ccccc4)C[C@@](O)([C@@H](OC(=O)c4ccccc4)[C@H]21)C3(C)C` [docetaxel], in series [4] (20 mg/kg docetaxel, next 14 days), the tumor growth entry is given as “Significant inhibition”. The “percentage of ALDF-positive cells” value in series [4] (residual tumor after 20 mg/kg docetaxel, vs control samples) is “higher”.

With “scrambled siRNA: control siRNA; sense SEQ ID NO: 1 ATCTCGCTTGGGCGAGAGTAAG, antisense SEQ ID NO: 17 CTTACTCTCGCCCAAGCGAGAG (listed as DNA, chemistry not given here) [reference compound]”, the “MSFE, primary MSs” value in the series with BT549 [5] (1 μg/well silicon particles loaded with DOPC nanoliposomes/siRNA, counted Day 3) amounted to 2.4%. In the series with BT549 [5] (silicon particles loaded with DOPC nanoliposomes/siRNA, re-plated, counted after 3 days), the “MSFE, secondary MSs” value amounted to 1%. The “lung metastasis (animals with metastasis / animals), IVIS imaging” value with MDAMB231 lung metastasis is recorded as 12/12.

The values above are taken from US9546367B2, “siRNA compositions and methods for inhibiting gene expression in tumor initiating cells of breast cancer” (priority 2011, dated 2017).
